From paper PMC2782309 (2009) come the findings set out here.

The test addresses TRPM2 (transient receptor potential cation channel, subfamily melastatin, member 2) (Homo sapiens, UniProt O94759). Kind of test: whole-cell patch clamp with ADPR infused through the pipette. Type of test: cell-based.

Sequence of TRPM2 (transient receptor potential cation channel, subfamily melastatin, member 2) (O94759 whole entry, the tested form may be a part): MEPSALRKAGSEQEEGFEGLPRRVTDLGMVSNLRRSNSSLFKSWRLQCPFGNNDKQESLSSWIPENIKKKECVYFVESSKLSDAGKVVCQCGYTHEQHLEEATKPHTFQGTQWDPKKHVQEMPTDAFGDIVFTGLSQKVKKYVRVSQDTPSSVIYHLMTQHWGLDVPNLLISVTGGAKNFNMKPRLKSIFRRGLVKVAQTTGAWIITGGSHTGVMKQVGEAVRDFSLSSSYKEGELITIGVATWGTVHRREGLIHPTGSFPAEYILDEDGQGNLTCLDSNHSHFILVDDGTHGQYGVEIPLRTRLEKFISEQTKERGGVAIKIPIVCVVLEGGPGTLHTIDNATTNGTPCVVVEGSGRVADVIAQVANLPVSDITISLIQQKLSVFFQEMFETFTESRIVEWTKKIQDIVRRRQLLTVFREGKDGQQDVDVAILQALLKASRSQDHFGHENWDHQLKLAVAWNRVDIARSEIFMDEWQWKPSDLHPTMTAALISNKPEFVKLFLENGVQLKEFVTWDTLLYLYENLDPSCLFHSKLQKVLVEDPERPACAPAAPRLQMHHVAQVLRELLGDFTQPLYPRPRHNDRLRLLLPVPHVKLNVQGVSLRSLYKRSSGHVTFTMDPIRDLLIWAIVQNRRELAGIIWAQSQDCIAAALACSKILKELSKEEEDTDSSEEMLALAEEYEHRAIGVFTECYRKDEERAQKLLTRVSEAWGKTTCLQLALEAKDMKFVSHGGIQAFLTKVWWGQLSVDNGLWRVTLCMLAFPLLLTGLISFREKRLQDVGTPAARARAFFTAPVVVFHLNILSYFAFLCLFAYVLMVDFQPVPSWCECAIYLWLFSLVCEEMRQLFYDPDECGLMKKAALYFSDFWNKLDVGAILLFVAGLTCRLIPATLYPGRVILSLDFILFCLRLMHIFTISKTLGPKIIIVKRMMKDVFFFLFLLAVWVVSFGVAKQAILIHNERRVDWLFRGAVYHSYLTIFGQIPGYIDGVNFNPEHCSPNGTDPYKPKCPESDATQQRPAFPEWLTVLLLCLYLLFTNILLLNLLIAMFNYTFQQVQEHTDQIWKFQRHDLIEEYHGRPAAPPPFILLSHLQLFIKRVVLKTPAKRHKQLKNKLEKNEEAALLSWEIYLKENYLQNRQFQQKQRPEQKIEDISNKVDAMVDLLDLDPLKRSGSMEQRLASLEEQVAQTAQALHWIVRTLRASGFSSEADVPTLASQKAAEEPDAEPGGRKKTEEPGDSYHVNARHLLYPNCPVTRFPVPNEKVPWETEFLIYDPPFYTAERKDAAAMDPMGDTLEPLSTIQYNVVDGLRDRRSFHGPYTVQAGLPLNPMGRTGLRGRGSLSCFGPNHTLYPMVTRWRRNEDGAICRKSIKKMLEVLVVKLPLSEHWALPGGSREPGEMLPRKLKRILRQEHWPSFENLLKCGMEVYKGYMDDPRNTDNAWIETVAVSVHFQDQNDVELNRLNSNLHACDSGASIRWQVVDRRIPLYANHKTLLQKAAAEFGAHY

Molecule `Nc1ncnc2c1ncn2[C@@H]1O[C@H](COP(=O)(O)OP(=O)(O)OC[C@H]2OC(O)[C@H](O)[C@@H]2O)[C@@H](O)[C@H]1O` (stereo partly shown) [ADPR] yielded an EC50 of 133 µM.

The EC50 is the concentration giving half of the maximal effect.
